How the values were obtained:
[1] = system: NMDA receptor; assay: glycine/NMDA-induced currents in Xenopus oocytes injected with rat cerebral cortex poly(A+) mRNA (2-electrode voltage-clamp); format: cell-based; conditions: glycine/NMDA 3/30 μM; MgCl2 absent, CaCl2 2 mM; product applied 30 seconds before and during agonist
Experimental: (§1) Their efficacy may be studied by means of electrophysiological techniques in vitro and especially by means of the measurement of the currents induced by the glutamatergic agonists in the oocyte of Xenopus.
(§2) Xenopus oocytes are injected with 50 ng of poly(A^+) mRNA isolated from rat cerebral cortex and incubated for 2 to 3 days at 18° C. so as to allow the protein expression thereof. The inflow of currents induced by the EAAs are measured in a medium of composition: NaCl (82.5 mM), KCl (2.5 mM), CaCl2 (1 mM), MgCl2 (1 mM), NaH2 PO4 (1 mM), HEPES (5 mM), pH 7.4 by the 2 electrode Voltage-clamp method (voltage=-60 mV). To measure the currents induced by NMDA and glycine, MgCl2 is absent from the medium and CaCl2 is supplied at the concentration of 2 mM. The EAA agonists inducing the currents are used at the following concentrations: kainate: 100 μM; AMPA: 30 μM; glycine/NMDA: 3/30 μM. The product studied is applied 30 seconds before and during the application of the agonist.

[2] = system: AMPA receptor; assay: AMPA-induced currents in Xenopus oocytes injected with rat cerebral cortex poly(A+) mRNA (2-electrode voltage-clamp); format: cell-based
Experimental: as §1, §2

[3] = system: cerebral infarct; assay: Antineurodegenerative activity in vivo: occlusion of the middle cerebral artery (MCA), infarct volume; conditions: rats; for reduction of cortical edematous infarct volume: 20 mg/kg i.v., 1 hour after arterial occlusion
Experimental: The occlusion of the sylvian artery (or middle cerebral artery MCA) is at the origin of about 70% of cases of cerebral vascular accidents in man. This type of cerebral ischemia may be reproduced very precisely in rats by intracerebral ligature of the MCA. This definitive occlusion causes, within 24 hours, the formation of a striatocortical infarct of identical location to that observed in a clinical situation. The infarct is perfectly delimited and is therefore histologically measurable. This infarct is of the edematous type. It changes within the following 3 days into a definitive necrotic infarct. The excessive liberation of glutamate is a major pathological feature for the genesis of the cerebral infarct. An antiischemic neuroprotective compound should prevent the formation of this infarct at 24 hours and on its necrotic maturation at 96 hours.
The compounds of the invention are compounds with a potent antiischemic effect, even during post-ischemic delayed treatment (treatment by the i.v. route 1 hour after the arterial occlusion). […] This is a major activity since it also prevents necrotic maturation. Thus, when a 3-day follow-up treatment (10 mg/kg i.p. twice per day) is carried out after the initial i.v. injection (20 mg/kg), the compound of Example 1decreases the volume of the terminal infarct by 44%.

[4] = Solubility in water
[5] = system: glutamate-dependent convulsive attacks; assay: Anti-convulsant activity in vivo: convulsions triggered by sound stimulus in DBA2 mice
Text: Likewise, in the DBA2 mice, glutamate-dependent convulsive attacks may be triggered by subjecting the animals to a sound stimulus of high frequency (14 kHz, 103 dB). The anticonvulsion effects are objectivated by the capacity to prevent convulsions arrival and the death which follows.

Row | SMILES | IC50 [1] [µM] | IC50 ([2]; AMPA 30 μM, voltage -60 mV, product applied 30 seconds before and during agonist) [µM] | selectivity for the AMPA receptor ([2]; AMPA versus NMDA, Xenopus oocytes) [times] | reduction of cortical edematous infarct volume [3] [%] | solubility in water (in words) [4] | decrease of the volume of the terminal infarct ([3]; 20 mg/kg i.v. then 3-day follow-up 10 mg/kg i.p. twice per day) [%] | inhibition of mortality ([5]; 50 mg/kg i.p., 30 minutes before sound stimulus) | ED50 ([5]; Mus musculus, ip, 0.5 h, i.p. 30 minutes before sound stimulus (14 kHz, 103 dB), read-out: ED50 (anticonvulsant protection)) [mg/kg] | anticonvulsant effects (in words) ([5]; i.p. 30 minutes before sound stimulus)
1 | O=c1[nH]c2cc([N+](=O)[O-])c([N+](=O)[O-])cc2cc1S(=O)(=O)O [Example 2, 6,7-Dinitro-2-(1H)-quinolinone-3-sulfonic acid] | 8 | 0.2 | 40 | 27 | soluble in water | – | – | – | –
2 | O=c1[nH]c2cc([N+](=O)[O-])ccc2cc1S(=O)(=O)O [Example 1, 7-Nitro-2-(1H)-quinolinone-3-sulfonic acid] | – | – | – | 45 | – | 44 | more than 80% | 26.9 | strongly protects the animals
